# Test results reported in patent publication US11939588B2, “Elevated resistance to insects and plant pathogens without compromising seed production” (Board of Trustees of Michigan State University, priority 2019, dated 2024).
# Experiments:
# Type in all cases: in vivo, Arabidopsis thaliana
# [1] = test system: wild type Col-0 (WT), jazQ, jazD and jazU seedlings; test: Root elongation assay with MeJA
# Method: Seeds were surface sterilized with 50% (v/v) bleach for three min, washed 10 times with sterile water and stratified in dark at 4° C. for two days. Seedlings were grown on 0.7% (w/v) agar media containing half-strength Linsmaier and Skoog (LS; Caisson Labs) salts supplemented with 0.8% (w/v) sucrose and the indicated concentration of MeJA (Sigma-Aldrich). Each square Petri plate (Fisher; 100×100×15 mm) contained five seedlings per genotype. Plates were incubated vertically in a growth chamber maintained at 21° C. for eight days under 16-hour-light (80 μE m^−2s^−1)/8-hour-dark conditions. The length of primary roots was measured using ImageJ software (see website at imagej.nih.gov/ij/).
# [2] = test system: WT, jazQ and jazD seedlings; test: Apical hook formation in ethylene-elicited (ACC-treated) seedlings; conditions: jazD and jazQ seedlings compared with WT
# Excerpt: FIGS. 3A-3F illustrates that jazD plants are highly resistant to insect herbivores and necrotrophic pathogens. […] Data shown are the mean±SD of at least 30 larvae per genotype. Capital letters denote significant differences according to Tukey's HSD test (P<0.05). FIG. 3C is a heat map displaying the expression level of various jasmonate/ethylene-responsive genes in leaves of jazQ and jazD normalized to wild type. ACT, agmatine coumaroyl transferase (accession no. At5g61160). […] FIG. 3E graphically illustrates disease lesion size on leaves of the indicated genotypes following 5 days of treatment with B. cinerea spores for the indicated plant lines. […] Capital letters denote significant differences (Tukey's HSD test, P<0.05). FIG. 3F graphically illustrates apical hook angles of seedlings grown in the presence of various concentrations of the ethylene precursor 1-aminocyclopropane-1-carboxylic acid (ACC). Data shown are the mean±SD of at least 21 seedlings per genotype. […]
# In agreement with the RNA-seq data, jazQ plants were slightly more susceptible than wild type to the necrotrophic pathogen Botrytis cinerea, whereas jazD leaves were more resistant to the spread of disease lesions (FIG. […]). To determine whether jazQ and jazD differentially affect other ethylene responses, the inventors assessed apical hook formation in ethylene-elicited seedlings.
# [3] = test system: WT, jazQ and jazD seedlings; test: Sucrose rescue assay (leaf biomass and root growth)
# Method: The effect of exogenous sucrose on leaf biomass and root growth was determined by growing seedlings on square Petri plates (Greiner Bio-One; 120×120×17 mm). In order to control for variation in seed quality, seeds were sieved after drying with desiccant for two weeks (see above). After sterilization and washing, seeds were sown without stratification on 0.7% (w/v) agar media containing half-strength LS salts supplemented with sucrose or sorbitol. Each plate contained ten (for biomass) or five (for root growth) seeds of Col-0 and mutant lines. Plates were placed in the dark at 4° C. for four days and then incubated horizontally (for leaf biomass) or vertically (for root growth) in growth chambers maintained at 21° C. under 16 h at a light intensity of 80 μE m^−2 s^−1 and 8-hour dark. ImageJ was used to measure root length after 11 days. Plant biomass and projected leaf area were measured after 16 days.
# [4] = test system: WT, cdk8-1, jazD and jazD cdk8-1 seedlings; test: Root length on medium with 5-methyl-tryptophan; conditions: 0 or 15 μM 5-MT, 10-day-old, partially dependent on CDK8
# Excerpt: FIG. 13A is a schematic of tryptophan biosynthesis from chorismate. Tryptophan feedback inhibits the activity of anthranilate synthase (AS). Although 5-methyl-tryptophan (5-MT) inhibits anthranilate synthase activity, it cannot be used for the production of proteins. The abbreviations used in FIG. 13A are: TRP, anthranilate phosphoribosyltransferase: PAI, phosphoribosylanthranilate isomerase; IGPS, indole-3-glycerol-phosphate synthase; TSA, tryptophan synthase alpha subunit: TSB, tryptophan synthase beta subunit. FIG. 13B graphically illustrates root length of WT, cdk8-1, jazD, and jazD cdk8-1 10-day-old seedlings grown on medium supplemented with 0 or 15 μM of 5-methyl-tryptophan (5-MT). Data shown are the mean±SD of at least 24 seedlings per genotype at each 5-MT concentration. Letters denote significant differences according to Tukey's HSD test (P<0.05).
# FIG. 13B graphically illustrates root length of WT, cdk8-1, jazD, and jazD cdk8-1 10-day-old seedlings grown on medium supplemented with 0 or 15 μM of 5-methyl-tryptophan (5-MT). The data shown in FIG. 13B are the mean±SD of at least 24 seedlings per genotype at each 5-MT concentration, while the letters denote significant differences according to Tukey's HSD test (P<0.05).
# [5] = test system: leaves of wild type, jazQ and jazD plants; test: Coronatine treatment of intact leaves; conditions: 50 μM coronatine
# Method: The eighth true leaf of 40-day-old plants grown under 12-hour-light/12-hour-dark conditions were spotted with 5 μL of sterile water (mock) or a solution containing 50 μM coronatine (Sigma-Aldrich, C8115) prepared in sterile water. Photographs were taken two and four days after treatment.
structure (smiles),measurement,setting,value
"CC/C=C\CC1C(=O)CCC1CC(=O)OC (stereo not shown) [MeJA, methyljasmonate]",sensitivity of jaz decuple mutant (jazD) to jasmonate,"[1]; jazD seedlings, 0, 5 or 25 μM MeJA, 8-day-old",highly sensitive
same,growth of roots in the presence of MeJA,"[1]; jazD seedlings, 5 μM MeJA",effectively arrested
same,root length in the presence of MeJA,"[1]; jazU seedlings versus jazD, very low concentrations (e.g., 1 μM) of MeJA",even shorter than jazD
"NC1(C(=O)O)CC1 [ACC, 1-aminocyclopropane-1-carboxylic acid]",stimulation of hook curvature in response to ACC,[2],reduced in jazD but not jazQ seedlings
OC[C@H]1O[C@@](CO)(O[C@H]2O[C@H](CO)[C@@H](O)[C@H](O)[C@H]2O)[C@@H](O)[C@@H]1O [sucrose],effect of exogenous sucrose on biomass,"[3]; all genotypes tested (WT, jazQ, jazD), 16-day-old seedlings on agar medium",promotes increased biomass
same,effect of exogenous sucrose on root growth,"[3]; jazD in comparison with wild type and jazQ, 11-day-old seedlings, 23 mM sucrose",enhanced the root growth of jazD
same,stimulatory effect of sucrose on growth of shoots,[3]; jazD shoots compared with wild type and jazQ,statistically greater than that of wild type and jazQ
"Cc1ccc2[nH]cc(C[C@H](N)C(=O)O)c2c1 [5-MT, 5-methyl-tryptophan]",resistance to 5-MT (root length),[4],increased resistance
CC[C@H]1C=C(C(=O)N[C@@]2(C(=O)O)C[C@@H]2CC)[C@H]2CCC(=O)[C@H]2C1 [coronatine],sensitivity of jazD leaves to coronatine,"[5]; jazD leaves, 2 or 4 days",hypersensitive
same,leaf response after COR application,"[5]; jazD leaves, 4 days after treatment",near complete loss of chlorophyll and spreading of necrosis-like symptoms throughout the leaf
same,leaf response at the site of COR application,"[5]; jazD leaves, within 2 days of treatment",visible chlorosis
same,chlorosis after COR application,"[5]; wild type and jazQ leaves, within 4 days",no apparent signs of chlorosis
same,leaf response at the site of COR application,"[5]; wild type and jazQ leaves, within 4 days of treatment",visible accumulation of anthocyanin pigments
